Measurements taken from PMC6576746, “Rational discovery of dual-indication multi-target PDE/Kinase inhibitor for precision anti-cancer therapy using structural systems pharmacology” (PLoS Computational Biology, 2019).

How the values were obtained:
Assay in all cases: cells
Set-up in all cases: species or system panel of human cancer cell lines; Eurofins OncoPanel proliferation; nuclei count by high-content fluorescence imaging, 10-point dose response
639-V = details: Homo sapiens, 639-V, 72 h, cell count, 3 days
Summary of the method: (§1)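 Ten half-log concentrations from 100 μM (0.1% DMSO max) applied one day post-seeding, 3-day exposure at 37°C; untreated time-zero plate for GI50. Readout is nuclear cell count by automated fluorescence imaging, giving EC50, IC50, GI50 and 0–10 activity area.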

A204 = details: Homo sapiens, A204, 72 h, cell count, 3 days
Summary of the method: as §1

BT-549 = details: Homo sapiens, BT-549, 72 h, cell count, 3 days
Summary of the method: as §1

C32TG = details: C32TG, 72 h, cell count, 3 days
Summary of the method: as §1

CA46 = details: Homo sapiens, CA46, 72 h, cell count, 3 days
Summary of the method: as §1

EM-2 = details: Homo sapiens, EM-2, 72 h, cell count, 3 days
Summary of the method: as §1

KLE = details: Homo sapiens, KLE, 72 h, cell count, 3 days
Summary of the method: as §1

LS411N = details: Homo sapiens, LS-411N, 72 h, cell count, 3 days
Summary of the method: as §1

SJSA1 = details: Homo sapiens, SJSA-1, 72 h, cell count, 3 days
Summary of the method: as §1

SR = details: Homo sapiens, SR, 72 h, cell count, 3 days
Summary of the method: as §1

ST486 = details: Homo sapiens, ST486, 72 h, cell count, 3 days
Summary of the method: as §1

SU-DHL-10 = details: Homo sapiens, SU-DHL10, 72 h, cell count, 3 days
Summary of the method: as §1

SU-DHL-4 = details: Homo sapiens, SU-DHL-4, 72 h, cell count, 3 days
Summary of the method: as §1

SW1783 = details: Homo sapiens, SW1783, 72 h, cell count, 3 days
Summary of the method: as §1

[1] = 50% of maximum possible response

- IC50 (BT-549; [1]): 15.4 µM
- GI50 (BT-549; corrected for time zero): 11.3 µM
- EC50 (BT-549; curve inflection point): 12.7 µM
- IC50 (SJSA1; [1]): 41.9 µM
- GI50 (SJSA1; corrected for time zero): 18.4 µM
- EC50 (SJSA1; curve inflection point): 41.9 µM
- IC50 (SU-DHL-10; [1]): 13.3 µM
- GI50 (SU-DHL-10; corrected for time zero): 12 µM
- EC50 (SU-DHL-10; curve inflection point): 13.3 µM
- IC50 (SU-DHL-4; [1]): 4.77 µM
- GI50 (SU-DHL-4; corrected for time zero): 3.31 µM
- EC50 (SU-DHL-4; curve inflection point): 0.944 µM
- IC50 (SW1783; [1]): 82.1 µM
- GI50 (SW1783; corrected for time zero): 35.6 µM
- EC50 (SW1783; curve inflection point): 82.1 µM
Structure (SMILES): C[C@@H]1CC(=O)NN=C1c1ccc(NN=C(C#N)C#N)cc1 [levosimendan]
- IC50 (639-V; [1]): 6.97 µM
- GI50 (639-V; corrected for time zero): 6.51 µM
- EC50 (639-V; curve inflection point): 5.59 µM
- IC50 (A204; [1]): 9.19 µM
- GI50 (A204; corrected for time zero): 7.57 µM
- EC50 (A204; curve inflection point): 7.85 µM
- IC50 (C32TG; [1]): 36.9 µM
- GI50 (C32TG; corrected for time zero): 23.4 µM
- EC50 (C32TG; curve inflection point): 36.9 µM
- IC50 (CA46; [1]): 13.2 µM
- GI50 (CA46; corrected for time zero): 11 µM
- EC50 (CA46; curve inflection point): 13.2 µM
- IC50 (EM-2; [1]): 25.4 µM
- GI50 (EM-2; corrected for time zero): 18.6 µM
- EC50 (EM-2; curve inflection point): 22.3 µM
- IC50 (KLE; [1]): 85.4 µM
- GI50 (KLE; corrected for time zero): 20.8 µM
- EC50 (KLE; curve inflection point): 29.6 µM
- IC50 (LS411N; [1]): > 100 µM
- GI50 (LS411N; corrected for time zero): > 100 µM
- EC50 (LS411N; curve inflection point): > 100 µM
- IC50 (SR; [1]): 16.1 µM
- GI50 (SR; corrected for time zero): 14.7 µM
- EC50 (SR; curve inflection point): 15.6 µM
- IC50 (ST486; [1]): 8.16 µM
- GI50 (ST486; corrected for time zero): 6.04 µM
- EC50 (ST486; curve inflection point): 8.16 µM
